Results published in patent US20250281462A1, “THERAPEUTICALLY EFFECTIVE ORAL ADMINISTRATION OF A 2 ARYLBENZIMIDAZOLE” (Tranquis Therapeutics, Inc., priority 2021, published 2025).

Test: Phase 1 single ascending dose (SAD) trial, plasma pharmacokinetics (Part 1)
Details: human; for Frel AUC(0-inf)/D / Frel AUC(0-last)/D / Frel Cmax/D: dose normalized comparison to Regimen C 540 mg MC; for AUC(0-t) / AUC(0-inf) / Cmax / half-life / Tmax: male, in vivo, po, single dose; for AUC(0-t) / AUC(0-inf) / Cmax / Tmax: human plasma; for half-life: T1/2, human plasma; for Tmax: median
[1] = 90 mg SDD, fasted (Regimen G) versus fed (Regimen F)
[2] = 180 mg HME (Regimen E) compared to MC counterpart (Regimen B)
[3] = 180 mg SDD (Regimen D) compared to MC counterpart (Regimen B)
[4] = MC formulation, 60 mg to 540 mg TQS-168 (9-fold increase in dose)
[5] = MC formulation, 180 mg to 540 mg TQS-168 (3-fold increase in dose)
[6] = SDD fasted, 270 mg (Regimen H) vs 90 mg (Regimen G)
[7] = SDD fasted, 270 mg (Regimen H) vs 180 mg (Regimen D)
[8] = Regimen D 180 mg SDD, geometric mean
[9] = Regimen E 180 mg HME, comparison to Regimen D 180 mg SDD, geometric mean
[10] = Regimen E 180 mg HME, geometric mean
[11] = 60 mg, Regimen A: 60 mg TQS-168 MC oral suspension, fasted, geometric mean
[12] = 60 mg, Regimen A: 60 mg TQS-168 MC oral suspension, fasted
[13] = 90 mg, Regimen F: 90 mg TQS-168 SDD oral suspension, fed (high fat breakfast), geometric mean
[14] = 90 mg, Regimen G: 90 mg TQS-168 SDD oral suspension, fasted, geometric mean
[15] = 90 mg, Regimen G: 90 mg TQS-168 SDD oral suspension, fasted
[16] = 180 mg, Regimen B: 180 mg TQS-168 MC oral suspension, fasted, geometric mean
[17] = 180 mg, Regimen D: 180 mg TQS-168 SDD oral suspension, fasted, geometric mean
[18] = 180 mg, Regimen E: 180 mg TQS-168 HME oral suspension, fasted, geometric mean
[19] = 180 mg, Regimen B: 180 mg TQS-168 MC oral suspension, fasted
[20] = 180 mg, Regimen D: 180 mg TQS-168 SDD oral suspension, fasted
[21] = 180 mg, Regimen E: 180 mg TQS-168 HME oral suspension, fasted
[22] = 270 mg, Regimen H: 270 mg TQS-168 SDD oral suspension, fasted, geometric mean
[23] = 270 mg, Regimen H: 270 mg TQS-168 SDD oral suspension, fasted
[24] = 540 mg, Regimen C: 540 mg TQS-168 MC oral suspension, fasted, geometric mean
[25] = 540 mg, Regimen C: 540 mg TQS-168 MC oral suspension, fasted

## CC(C)(C)c1ccc(-c2nc3ccccc3[nH]2)cc1 [TQS-168, 2-(4-tert-butylphenyl)-1H-benzimidazole]
[1]
  increase in AUC(0-inf): ~14%
  increase in Cmax: approximately 136%
[2]
  fold increase in geometric mean AUC(0-inf): 2.06 fold
  fold increase in geometric mean AUC(0-last): 2.14 fold
  fold increase in geometric mean Cmax: 2.32 fold
[3]
  fold increase in geometric mean AUC(0-inf): 3.45 fold
  fold increase in geometric mean AUC(0-last): 3.64 fold
  fold increase in geometric mean Cmax: 4.11 fold
[4]
  fold increase in AUC(0-24): 20.2 fold
  fold increase in AUC(0-inf): 21.2 fold
  fold increase in Cmax: 12.1 fold
[5]
  fold increase in AUC(0-24): 8.8 fold
  fold increase in AUC(0-inf): 9.5 fold
  fold increase in Cmax: 6.1 fold
[6]
  fold increase in AUC(0-inf): 4.29 fold
  fold increase in Cmax: 2.14 fold
[7]
  increase in AUC(0-inf): ~26%
  increase in Cmax: approximately 8.7%
[8]
  Frel AUC(0-inf)/D: 118%
  Frel AUC(0-last)/D: 120%
  Frel Cmax/D: 218%
[9]
  Frel AUC(0-inf): 59.6%
  Frel AUC(0-last): 58.9%
  Frel Cmax: 56.6%
[10]
  Frel AUC(0-inf)/D: 70.4%
  Frel AUC(0-last)/D: 70.9%
  Frel Cmax/D: 124%
60 mg, AUC(0-24), Regimen A: 60 mg TQS-168 MC oral suspension, fasted, geometric mean
  AUC(0-t): 71.2 ng·h/mL
[11]
  AUC(0-inf): 72.7 ng·h/mL
  Cmax: 26.7 ng/mL
  half-life: 3.06 h
60 mg, AUC(0-last), Regimen A: 60 mg TQS-168 MC oral suspension, fasted, geometric mean
  AUC(0-t): 67.6 ng·h/mL
[12]
  Cmax: 110 nM
  Tmax: 1 h
90 mg, AUC(0-24), Regimen F: 90 mg TQS-168 SDD oral suspension, fed (high fat breakfast), geometric mean
  AUC(0-t): 168 ng·h/mL
90 mg, AUC(0-24), Regimen G: 90 mg TQS-168 SDD oral suspension, fasted, geometric mean
  AUC(0-t): 192 ng·h/mL
[13]
  AUC(0-inf): 171 ng·h/mL
  Cmax: 47.1 ng/mL
  half-life: 3.52 h
[14]
  AUC(0-inf): 195 ng·h/mL
  Cmax: 111 ng/mL
  half-life: 4.85 h
90 mg, AUC(0-last), Regimen F: 90 mg TQS-168 SDD oral suspension, fed (high fat breakfast), geometric mean
  AUC(0-t): 166 ng·h/mL
90 mg, AUC(0-last), Regimen G: 90 mg TQS-168 SDD oral suspension, fasted, geometric mean
  AUC(0-t): 189 ng·h/mL
90 mg, Regimen F: 90 mg TQS-168 SDD oral suspension, fed
  Cmax: 190 nM
[15]
  Cmax: 440 nM
  Tmax: 0.5 h
90 mg, Regimen F: 90 mg TQS-168 SDD oral suspension, fed (high fat breakfast)
  Tmax: 1.5 h
180 mg, AUC(0-24), Regimen B: 180 mg TQS-168 MC oral suspension, fasted, geometric mean
  AUC(0-t): 163 ng·h/mL
180 mg, AUC(0-24), Regimen D: 180 mg TQS-168 SDD oral suspension, fasted, geometric mean
  AUC(0-t): 608 ng·h/mL
180 mg, AUC(0-24), Regimen E: 180 mg TQS-168 HME oral suspension, fasted, geometric mean
  AUC(0-t): 358 ng·h/mL
[16]
  AUC(0-inf): 180 ng·h/mL
  Cmax: 53.1 ng/mL
  half-life: 7.36 h
[17]
  AUC(0-inf): 621 ng·h/mL
  Cmax: 218 ng/mL
  half-life: 5.64 h
[18]
  AUC(0-inf): 370 ng·h/mL
  Cmax: 123 ng/mL
  half-life: 7.25 h
180 mg, AUC(0-last), Regimen B: 180 mg TQS-168 MC oral suspension, fasted, geometric mean
  AUC(0-t): 168 ng·h/mL
180 mg, AUC(0-last), Regimen D: 180 mg TQS-168 SDD oral suspension, fasted, geometric mean
  AUC(0-t): 611 ng·h/mL
180 mg, AUC(0-last), Regimen E: 180 mg TQS-168 HME oral suspension, fasted, geometric mean
  AUC(0-t): 360 ng·h/mL
[19]
  Cmax: 210 nM
  Tmax: 1 h
[20]
  Cmax: 870 nM
  Tmax: 1 h
[21]
  Cmax: 490 nM
  Tmax: 1.5 h
270 mg, AUC(0-24), Regimen H: 270 mg TQS-168 SDD oral suspension, fasted, geometric mean
  AUC(0-t): 736 ng·h/mL
[22]
  AUC(0-inf): 836 ng·h/mL
  Cmax: 237 ng/mL
  half-life: 10.4 h
270 mg, AUC(0-last), Regimen H: 270 mg TQS-168 SDD oral suspension, fasted, geometric mean
  AUC(0-t): 801 ng·h/mL
[23]
  Cmax: 950 nM
  Tmax: 1.5 h
540 mg, AUC(0-24), Regimen C: 540 mg TQS-168 MC oral suspension, fasted, geometric mean
  AUC(0-t): 1440 ng·h/mL
[24]
  AUC(0-inf): 1600 ng·h/mL
  Cmax: 323 ng/mL
  half-life: 10.1 h
540 mg, AUC(0-last), Regimen C: 540 mg TQS-168 MC oral suspension, fasted, geometric mean
  AUC(0-t): 1540 ng·h/mL
[25]
  Cmax: 1290 nM
  Tmax: 2.25 h
